# Target: Sodium-dependent dopamine transporter (Rattus norvegicus, UniProt P23977)
# Experiment: Radioligand Binding Assay
# Details: not given
# Protocol: The assay was initiated by the addition of membranes to binding buffer containing test compound, blocker, and radioligand. The samples were incubated in triplicate. Brandel cell harvesters were used to filter the samples over Whatman GF/B filters, which were presoaked in wash buffer. The 125I retained on the filters was measured in a gamma counter.
# Sequence of Sodium-dependent dopamine transporter (P23977 whole entry): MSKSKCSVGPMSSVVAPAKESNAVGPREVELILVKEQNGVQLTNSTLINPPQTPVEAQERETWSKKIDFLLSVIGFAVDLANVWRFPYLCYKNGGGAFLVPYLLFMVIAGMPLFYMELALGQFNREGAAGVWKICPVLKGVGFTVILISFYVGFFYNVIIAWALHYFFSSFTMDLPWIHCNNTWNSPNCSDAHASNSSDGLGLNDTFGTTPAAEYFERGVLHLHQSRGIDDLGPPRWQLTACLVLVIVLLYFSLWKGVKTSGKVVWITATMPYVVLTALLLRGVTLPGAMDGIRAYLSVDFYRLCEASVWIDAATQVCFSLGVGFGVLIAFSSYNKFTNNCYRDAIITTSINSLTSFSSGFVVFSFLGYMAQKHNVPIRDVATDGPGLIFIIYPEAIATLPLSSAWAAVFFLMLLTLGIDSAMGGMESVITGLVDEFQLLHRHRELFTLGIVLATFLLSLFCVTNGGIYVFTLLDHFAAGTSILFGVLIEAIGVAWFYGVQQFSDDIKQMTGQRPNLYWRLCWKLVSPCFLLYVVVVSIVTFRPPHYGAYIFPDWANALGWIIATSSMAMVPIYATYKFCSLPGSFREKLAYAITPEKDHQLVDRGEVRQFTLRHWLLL
row,SMILES,Ki [nM]
1,O=C(Cc1ccccc1)CN1CCN(CCOC(c2ccccc2)c2ccccc2)CC1 [1-{4-[2-(diphenylmethoxy)ethyl]piperazin-1-yl}-3-phenylpropan-2-one],10
2,O=C(Cc1ccccc1)CN1CCN(CCOC(c2ccc(F)cc2)c2ccc(F)cc2)CC1 [1-(4-{2-[bis(4-fluorophenyl)methoxy]ethyl}piperazin-1-yl)-3-phenylpropan-2-one],6.5
3,FC[C@H](Cc1ccccc1)N1CCN(CCOC(c2ccc(F)cc2)c2ccc(F)cc2)CC1 [1-{2-[bis(4-fluorophenyl)methoxy]ethyl}-4-[(2S)-1-fluoro-3-phenylpropan-2-yl]piperazine],140
4,O=C(CN1CCN(CCOC(c2ccccc2)c2ccccc2)CC1)c1ccccc1 [2-{4-[2-(diphenylmethoxy)ethyl]piperazin-1-yl}-1-phenylethan-1-one],450
5,O=C(CN1CCN(CCOC(c2ccc(F)cc2)c2ccc(F)cc2)CC1)c1ccccc1 [2-(4-{2-[bis(4-fluorophenyl)methoxy]ethyl}piperazin-1-yl)-1-phenylethan-1-one],54
6,CC(O)(Cc1ccccc1)CN1CCN(CCOC(c2ccc(F)cc2)c2ccc(F)cc2)CC1 (configuration not stated) [1-(4-{2-[bis(4-fluorophenyl)methoxy]ethyl}piperazin-1-yl)-2-methyl-3-phenylpropan-2-ol],57
7,C=C(Cc1ccccc1)CN1CCN(CCOC(c2ccccc2)c2ccccc2)CC1 [1-(2-benzylprop-2-en-1-yl)-4-[2-(diphenylmethoxy)ethyl]piperazine],410
8,C=C(Cc1ccccc1)CN1CCN(CCOC(c2ccc(F)cc2)c2ccc(F)cc2)CC1 [1-(2-benzylprop-2-en-1-yl)-4-{2-[bis(4-fluorophenyl)methoxy]ethyl}piperazine],100
9,CC(O)(Cc1ccccc1)CN1CCN(CCOC(c2ccccc2)c2ccccc2)CC1 (configuration not stated) [1-{4-[2-(diphenylmethoxy)ethyl]piperazin-1-yl}-2-methyl-3-phenylpropan-2-ol],150
10,FC[C@@H](Cc1ccccc1)N1CCN(CCOC(c2ccc(F)cc2)c2ccc(F)cc2)CC1 [1-{2-[bis(4-fluorophenyl)methoxy]ethyl}-4-[(2R)-1-fluoro-3-phenylpropan-2-yl]piperazine],110

# Same assay, conditions: pH 7.4; 4 °C
row,SMILES,Ki [nM]
1,C=C(CCN1CCN(CCOC(c2ccc(F)cc2)c2ccc(F)cc2)CC1)c1ccccc1 [1-{2-[bis(4-fluorophenyl)methoxy]ethyl}-4-(3-phenylbut-3-en-1-yl)piperazine],18
2,C[C@@H](Cc1ccccc1)CN1CCN(CCOC(c2ccc(F)cc2)c2ccc(F)cc2)CC1 [1-[(2S)-2-benzylpropyl]-4-{2-[bis(4-fluorophenyl)methoxy]ethyl}piperazine],17
3,Fc1ccc(C(OCCN2CCN(C[C@@H](F)Cc3ccccc3)CC2)c2ccc(F)cc2)cc1 [1-{2-[bis(4-fluorophenyl)methoxy]ethyl}-4-[(2S)-2-fluoro-3-phenylpropyl]piperazine],2.7
4,N[C@H](Cc1ccccc1)CN1CCN(CCOC(c2ccc(F)cc2)c2ccc(F)cc2)CC1 [(2R)-1-(4-{2-[bis(4-fluorophenyl)methoxy]ethyl}piperazin-1-yl)-3-phenylpropan-2-amine],20
5,CO[C@H](Cc1ccccc1)CN1CCN(CCOC(c2ccc(F)cc2)c2ccc(F)cc2)CC1 [1-{2-[bis(4-fluorophenyl)methoxy]ethyl}-4-[(2R)-2-methoxy-3-phenylpropyl]piperazine],27
6,Fc1ccc(C(OCCN2CCN(C[C@H](F)Cc3ccccc3)CC2)c2ccc(F)cc2)cc1 [1-{2-[bis(4-fluorophenyl)methoxy]ethyl}-4-[(2R)-2-fluoro-3-phenylpropyl]piperazine],22
7,C=C(CCN1CCN(CCOC(c2ccccc2)c2ccccc2)CC1)c1ccccc1 [1-[2-(diphenylmethoxy)ethyl]-4-(3-phenylbut-3-en-1-yl)piperazine],30
8,CO[C@@H](Cc1ccccc1)CN1CCN(CCOC(c2ccc(F)cc2)c2ccc(F)cc2)CC1 [1-{2-[bis(4-fluorophenyl)methoxy]ethyl}-4-[(2S)-2-methoxy-3-phenylpropyl]piperazine],29
9,CC(O)(CCN1CCN(CCOC(c2ccccc2)c2ccccc2)CC1)c1ccccc1 (configuration not stated) [4-{4-[2-(diphenylmethoxy)ethyl]piperazin-1-yl}-2-phenylbutan-2-ol],7
10,C[C@H](Cc1ccccc1)CN1CCN(CCOC(c2ccc(F)cc2)c2ccc(F)cc2)CC1 [1-[(2R)-2-benzylpropyl]-4-{2-[bis(4-fluorophenyl)methoxy]ethyl}piperazine],17
11,CC(O)(CCN1CCN(CCOC(c2ccc(F)cc2)c2ccc(F)cc2)CC1)c1ccccc1 (configuration not stated) [4-(4-{2-[bis(4-fluorophenyl)methoxy]ethyl}piperazin-1-yl)-2-phenylbutan-2-ol],4
12,N[C@@H](Cc1ccccc1)CN1CCN(CCOC(c2ccc(F)cc2)c2ccc(F)cc2)CC1 [(2S)-1-(4-{2-[bis(4-fluorophenyl)methoxy]ethyl}piperazin-1-yl)-3-phenylpropan-2-amine],39
